According to patent US8680052B1, “Methods of treating, reducing the incidence of, and/or preventing ischemic events” (The Medicines Company, priority 2013, dated 2014):
Where two headings read alike, the source gives them in different places.

Tested on: patients undergoing percutaneous coronary intervention (PCI)
Settings: for Mortality/Q-wave MI/IDR / Mortality/Q-wave MI/Stent thrombosis: exploratory
[1] = 30-day, ITT, cangrelor vs comparator arm
[2] = 30-day, MITT, cangrelor vs comparator arm
[3] = 30-day, Safety population, cangrelor vs comparator arm
[4] = 48-hour, ITT, cangrelor vs comparator arm

Protocol: The diagnosis of non-ST-segment elevation myocardial infarction required troponin I or T greater than the upper limit of normal within 24 hours of randomization (or if troponin results were unavailable at that time, creatine kinase-myocardial band isoenzyme [CK-MB] greater than the upper limit of normal). The diagnosis of unstable angina required ischemic chest discomfort occurring at rest and lasting ≧10 minutes within the 24 hours prior to randomization and dynamic electrocardiographic changes; age ≧65 years and/or diabetes mellitus were also required.
The primary efficacy endpoint was the composite of mortality, myocardial infarction, or ischemia-driven revascularization at 48 hours. The primary analysis was performed on a modified intent-to-treat population. Confirmatory analyses were performed on an intent-to-treat population. Secondary endpoints included the individual rates of mortality, myocardial infarction, new Q-wave myocardial infarction, ischemia-driven revascularization, abrupt vessel closure, or stroke at 48 hours. Mortality at 30 days and 1 year was also recorded. The clinical events committee adjudicated myocardial infarction, Q-wave myocardial infarction, ischemia-driven revascularization, stent thromboses, and stroke (ischemic or hemorrhagic). The definition of stent thrombosis was similar to the Academic Research Consortium definition of definite stent thrombosis. After review of the prespecified analyses, two exploratory endpoints less reliant on periprocedural biomarker ascertainment were examined. The exploratory endpoints, which were composed of prespecified and adjudicated endpoints, were the composite of mortality, Q-wave myocardial infarction, or ischemia-driven revascularization and the composite of mortality, Q-wave myocardial infarction, or stent thrombosis. Bleeding and adverse events through 48 hours were compared.
All efficacy analyses were performed on the modified intent-to-treat population, defined as all randomized patients who received at least one dose of study drug and underwent the index PCI. All safety-related analyses were performed on the safety population, which included all patients who received at least one dose of assigned study drug. Patients in the safety analyses were assigned to a treatment arm based on treatment actually received, not as randomized. Intent-to-treat analyses are also presented for full disclosure of results. All statistical tests were two-tailed using a level of significance of 0.05. […] Logistic regression was also used to analyze the majority of the remaining secondary endpoints.

CSCCNc1nc(SCCC(F)(F)F)nc2c1ncn2[C@@H]1O[C@H](COP(=O)(O)OP(=O)(O)C(Cl)(Cl)P(=O)(O)O)[C@@H](O)[C@H]1O [Cangrelor, cangrelor]
All-cause mortality (30-day, ITT): 36 (1.3) no. (%) | IDR (30-day, ITT): 37 (1.4) no. (%) | MI (30-day, ITT): 190 (7.1) no. (%) | Mortality/MI/IDR (30-day, ITT): 230 (8.6) no. (%) | Q-wave MI (30-day, ITT): 8 (0.3) no. (%) | Stent thrombosis (30-day, ITT): 15 (0.6) no. (%) | OR (95% CI): All-cause mortality [1]: 0.754 (0.487, 1.167) | OR (95% CI): IDR [1]: 0.743 (0.483, 1.142) | OR (95% CI): MI [1]: 0.924 (0.752, 1.135) | OR (95% CI): Mortality/MI/IDR [1]: 0.885 (0.734, 1.067) | OR (95% CI): Mortality/Q-wave MI/IDR [1]: 0.718 (0.524, 0.984) | OR (95% CI): Mortality/Q-wave MI/Stent thrombosis [1]: 0.648 (0.453, 0.927) | OR (95% CI): Q-wave MI [1]: 0.526 (0.222, 1.242) | OR (95% CI): Stent thrombosis [1]: 0.508 (0.272, 0.950) | Mortality/Q-wave MI/IDR (30-day, ITT): 69 (2.6) no. (%) | Mortality/Q-wave MI/Stent thrombosis (30-day, ITT): 51 (1.9) no. (%) | All-cause mortality (30-day, MITT): 33 (1.2) no. (%) | IDR (30-day, MITT): 37 (1.4) no. (%) | MI (30-day, MITT): 189 (7.1) no. (%) | Mortality/MI/IDR (30-day, MITT): 226 (8.5) no. (%) | Q-wave MI (30-day, MITT): 8 (0.3) no. (%) | Stent thrombosis (30-day, MITT): 15 (0.6) no. (%) | OR (95% CI): All-cause mortality [2]: 0.725 (0.461, 1.140) | OR (95% CI): IDR [2]: 0.796 (0.515, 1.231) | OR (95% CI): MI [2]: 0.929 (0.756, 1.142) | OR (95% CI): Mortality/MI/IDR [2]: 0.892 (0.739, 1.078) | OR (95% CI): Mortality/Q-wave MI/IDR [2]: 0.730 (0.528, 1.008) | OR (95% CI): Mortality/Q-wave MI/Stent thrombosis [2]: 0.647 (0.447, 0.935) | OR (95% CI): Q-wave MI [2]: 0.566 (0.237, 1.352) | OR (95% CI): Stent thrombosis [2]: 0.529 (0.282, 0.993) | Mortality/Q-wave MI/IDR (30-day, MITT): 66 (2.5) no. (%) | Mortality/Q-wave MI/Stent thrombosis (30-day, MITT): 48 (1.8) no. (%) | All-cause mortality (30-day, Safety population): 34 (1.3) no. (%) | IDR (30-day, Safety population): 37 (1.4) no. (%) | MI (30-day, Safety population): 188 (7.1) no. (%) | Mortality/MI/IDR (30-day, Safety population): 226 (8.5) no. (%) | Q-wave MI (30-day, Safety population): 8 (0.3) no. (%) | Stent thrombosis (30-day, Safety population): 15 (0.6) no. (%) | OR (95% CI): All-cause mortality [3]: 0.747 (0.477, 1.170) | OR (95% CI): IDR [3]: 0.779 (0.504, 1.202) | OR (95% CI): MI [3]: 0.913 (0.743, 1.122) | OR (95% CI): Mortality/MI/IDR [3]: 0.884 (0.732, 1.067) | OR (95% CI): Mortality/Q-wave MI/IDR [3]: 0.732 (0.531, 1.010) | OR (95% CI): Mortality/Q-wave MI/Stent thrombosis [3]: 0.651 (0.452, 0.938) | OR (95% CI): Q-wave MI [3]: 0.528 (0.224, 1.248) | OR (95% CI): Stent thrombosis [3]: 0.529 (0.282, 0.993) | Mortality/Q-wave MI/IDR (30-day, Safety population): 67 (2.5) no. (%) | Mortality/Q-wave MI/Stent thrombosis (30-day, Safety population): 49 (1.8) no. (%) | All-cause mortality (48-hour, ITT): 8 (0.3) no. (%) | IDR (48-hour, ITT): 19 (0.7) no. (%) | MI (48-hour, ITT): 177 (6.6) no. (%) | Mortality/MI/IDR (48-hour, ITT): 187 (6.9) no. (%) | Q-wave MI (48-hour, ITT): 4 (0.1) no. (%) | Stent thrombosis (48-hour, ITT): 5 (0.2) no. (%) | Stroke (48-hour, ITT): 7 (0.3) no. (%) | OR (95% CI): All-cause mortality [4]: 0.415 (0.181, 0.950) | OR (95% CI): IDR [4]: 0.721 (0.398, 1.307) | OR (95% CI): MI [4]: 0.906 (0.734, 1.120) | OR (95% CI): Mortality/MI/IDR [4]: 0.859 (0.701, 1.054) | OR (95% CI): Mortality/Q-wave MI/IDR [4]: 0.558 (0.341, 0.915) | OR (95% CI): Mortality/Q-wave MI/Stent thrombosis [4]: 0.409 (0.224, 0.749) | OR (95% CI): Q-wave MI [4]: 0.439 (0.135, 1.428) | OR (95% CI): Stent thrombosis [4]: 0.308 (0.113, 0.842) | OR (95% CI): Stroke [4]: 1.155 (0.388, 3.442) | Mortality/Q-wave MI/IDR (48-hour, ITT): 25 (0.9) no. (%)
